Columns and labels:
Test in all cases: relative viability (nuclei count vs DMSO), 5 days (fraction); higher = more cells survive
GW-2580 + OSI-027 = compound: COC1=CC=C(C=C1)COC2=C(C=C(C=C2)CC3=CN=C(N=C3N)N)OC [GW-2580] + COc1cccc2cc(-c3nc([C@H]4CC[C@H](C(=O)O)CC4)n4ncnc(N)c34)[nH]c12 [OSI-027] (partner 0.5 µM)
Summary of the method: (§1)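 Values are medians from duplicate plates. Each reflects relative viability, defined as the nuclei count of treated wells over that of vehicle wells. Lung cancer cell lines in 1536-well plates were pin-tool dosed one day after seeding with one drug alone or with a fixed anchor-drug dose plus five library-drug doses (not always all listed) in √10 steps, then fixed, stained and imaged at 4× after 5 days.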

Fedratinib + AZD7762 = compound: Cc1cnc(Nc2ccc(OCCN3CCCC3)cc2)nc1Nc1cccc(S(=O)(=O)NC(C)(C)C)c1 [Fedratinib] + NC(=O)Nc1cc(-c2cccc(F)c2)sc1C(=O)N[C@H]1CCCNC1 [AZD7762] (partner 0.2 µM)
Summary of the method: as §1

GW-2580 + Pictilisib = compound: COC1=CC=C(C=C1)COC2=C(C=C(C=C2)CC3=CN=C(N=C3N)N)OC [GW-2580] + CS(=O)(=O)N1CCN(Cc2cc3nc(-c4cccc5[nH]ncc45)nc(N4CCOCC4)c3s2)CC1 [Pictilisib] (partner 1 µM)
Summary of the method: as §1

GW-2580 + Olaparib = compound: COC1=CC=C(C=C1)COC2=C(C=C(C=C2)CC3=CN=C(N=C3N)N)OC [GW-2580] + O=C(c1cc(Cc2n[nH]c(=O)c3ccccc23)ccc1F)N1CCN(C(=O)C2CC2)CC1 [Olaparib] (partner 8 µM)
Summary of the method: as §1

GW-2580 + Bortezomib = compound: COC1=CC=C(C=C1)COC2=C(C=C(C=C2)CC3=CN=C(N=C3N)N)OC [GW-2580] + CC(C)C[C@H](NC(=O)[C@H](Cc1ccccc1)NC(=O)c1cnccn1)B(O)O [Bortezomib] (partner 0.002 µM)
Summary of the method: as §1

| Cell Line | relative viability (GW-2580 + OSI-027; first compound 0.08 µM) | relative viability (GW-2580 + OSI-027; first compound 0.8 µM) | relative viability (GW-2580 + OSI-027; first compound 2.53 µM) | relative viability (GW-2580 + OSI-027; first compound 8 µM) | relative viability (Fedratinib + AZD7762; first compound 0.1 µM) | relative viability (Fedratinib + AZD7762; first compound 0.3162 µM) | relative viability (Fedratinib + AZD7762; first compound 1 µM) | relative viability (GW-2580 + Pictilisib; first compound 0.08 µM) | relative viability (GW-2580 + Pictilisib; first compound 0.8 µM) | relative viability (GW-2580 + Pictilisib; first compound 2.53 µM) | relative viability (GW-2580 + Pictilisib; first compound 8 µM) | relative viability (GW-2580 + Olaparib; first compound 0.08 µM) | relative viability (GW-2580 + Olaparib; first compound 0.8 µM) | relative viability (GW-2580 + Olaparib; first compound 2.53 µM) | relative viability (GW-2580 + Olaparib; first compound 8 µM) | relative viability (GW-2580 + Bortezomib; first compound 0.08 µM) | relative viability (GW-2580 + Bortezomib; first compound 0.8 µM) | relative viability (GW-2580 + Bortezomib; first compound 2.53 µM) | relative viability (GW-2580 + Bortezomib; first compound 8 µM) |
| --- | --- | --- | --- | --- | --- | --- | --- | --- | --- | --- | --- | --- | --- | --- | --- | --- | --- | --- | --- |
| NCI-H1944 | 0.463 | 0.46 | 0.439 | 0.365 | 0.475 | 0.594 | 0.458 | 0.35 | 0.324 | 0.343 | 0.278 | 0.427 | 0.432 | 0.378 | 0.399 | – | – | – | – |
| NCI-H2009 | 0.665 | 0.707 | 0.619 | 0.633 | – | – | – | 0.924 | 0.982 | 0.652 | 0.809 | 0.752 | 0.698 | 0.918 | 0.645 | 1.02 | 0.955 | 0.931 | 0.844 |
| NCI-H2023 | 0.512 | 0.459 | 0.39 | 0.393 | – | – | – | 0.241 | 0.257 | 0.217 | 0.216 | 0.541 | 0.589 | 0.457 | 0.511 | 1.01 | 1.14 | 0.733 | 0.904 |
| NCI-H2170 | 0.757 | 0.745 | 0.735 | 0.748 | 0.77 | 0.821 | 0.644 | 0.316 | 0.353 | 0.304 | 0.287 | 0.616 | 0.702 | 0.569 | 0.574 | – | – | – | – |
| NCI-H2228 | 0.569 | 0.6 | 0.639 | 0.545 | – | – | – | 0.425 | 0.285 | 0.327 | 0.417 | 0.667 | 0.828 | 0.785 | 0.635 | 1.03 | 1.1 | 0.958 | 0.986 |
| NCI-H2342 | 0.574 | 0.671 | 0.519 | 0.62 | 0.443 | 0.528 | 0.56 | – | – | – | – | 0.397 | 0.59 | 0.382 | 0.382 | – | – | – | – |
| SK-LU-1 | 0.366 | 0.347 | 0.321 | 0.348 | – | – | – | 0.621 | 0.63 | 0.461 | 0.557 | 0.431 | 0.497 | 0.389 | 0.503 | 0.902 | 1.42 | 0.73 | 1.54 |
| SK-MES-1 | 0.625 | 0.723 | 0.592 | 0.379 | – | – | – | 0.34 | 0.381 | 0.355 | 0.324 | 0.79 | 0.795 | 0.603 | 0.777 | – | – | – | – |
| SW 900 | 0.69 | 0.693 | 0.569 | 0.75 | 0.621 | 0.692 | 0.608 | – | – | – | – | 0.864 | 1.03 | 0.994 | 0.747 | – | – | – | – |
| SW 1573 | 0.809 | 0.626 | 0.666 | 0.577 | – | – | – | 0.442 | 0.613 | 0.542 | 0.536 | 0.477 | 0.474 | 0.492 | 0.543 | 0.903 | 0.932 | 0.987 | 0.798 |
| UMC-11 | 0.531 | 0.508 | 0.515 | 0.439 | – | – | – | 0.828 | 1.01 | 0.695 | 0.823 | 0.358 | 0.375 | 0.464 | 0.436 | 0.793 | 0.758 | 0.788 | 0.603 |

From the supplement of paper PMC10307832
